The target in data set [1] is T1, peroxisome proliferator-activated receptor (PPAR) γ (Homo sapiens, UniProt P37231).
T1 sequence (P37231 1-505): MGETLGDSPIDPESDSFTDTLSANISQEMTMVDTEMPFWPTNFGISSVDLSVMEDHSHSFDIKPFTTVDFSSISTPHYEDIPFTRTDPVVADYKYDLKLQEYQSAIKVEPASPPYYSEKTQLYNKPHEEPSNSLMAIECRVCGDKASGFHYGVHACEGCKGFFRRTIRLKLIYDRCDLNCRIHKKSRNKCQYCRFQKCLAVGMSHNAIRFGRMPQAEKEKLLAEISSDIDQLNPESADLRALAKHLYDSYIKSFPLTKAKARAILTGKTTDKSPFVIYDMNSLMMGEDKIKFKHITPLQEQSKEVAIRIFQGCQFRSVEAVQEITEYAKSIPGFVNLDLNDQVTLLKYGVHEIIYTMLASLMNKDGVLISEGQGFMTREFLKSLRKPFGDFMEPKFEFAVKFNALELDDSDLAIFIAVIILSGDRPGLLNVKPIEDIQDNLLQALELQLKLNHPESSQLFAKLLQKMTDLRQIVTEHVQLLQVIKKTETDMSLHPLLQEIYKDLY
Particulars: as disclosed in Patent Documents 1 to 5; cited from earlier work.

For data set [2] the following is noted: as disclosed in Japanese Patent No. 3488099; cited from earlier work.
Data set [3] is described as follows: Solubility in dilute hydrochloric acid (Test Example 3). Conditions: for The concentration of 5-(4-{[6-(4-amino-3,5-dimethylphenoxy)-1-methyl-1-H-benzimidazol-2-yl]methoxy}benzyl)-1,3-thiazolidine-2,4-dione in dilute hydrochloric acid: dilute hydrochloric acid 9.6 mg/g (pH about 0.7), 25° C., 500 mg in 5 mL, sampled after 6 minutes.
Description: Concentrated hydrochloric acid was diluted with water to prepare dilute hydrochloric acid (with a pH of about 0.7 at 25° C.) with a hydrochloric acid concentration of 9.6 mg/g, which was used as a test liquid. 500 mg of the crystalline form was weighed and added to 5 mL of the test liquid at 25° C. and stirred at the same temperature. After 6 minutes, the resulting test liquid was sampled and filtered. The concentration of 5-(4-{[6-(4-amino-3,5-dimethylphenoxy)-1-methyl-1-H-benzimi dazol-2-yl]methoxy}benzyl) 3-thiazolidine-2,4-dione in the filtrate was determined.
The concentration of 5-(4-{[6-(4-amino-3,5-dimethylphenoxy)-1-methyl-1-H-benzimi dazol-2-yl]methoxy}benzyl) 3-thiazolidine-2,4-dione was determined by the method described below.
Water, acetonitrile and methanol were mixed in a volume ratio of 55:40:5 to form a sample solvent.
In the sample solvent was dissolved 0.2 g of isoamyl 4-hydroxybenzoate so that 200 mL of an internal standard solution was obtained. About 0.04 g of a standard sample of 5-(4-{[6-(4-amino-3,5-dimethylphenoxy)-1-methyl-1-H-benzimi dazol-2-yl]methoxy}benzyl)-1,3-thiazolidine-2,4-dione dihydrochloride monohydrate was precisely weighed, transferred to a 200 mL measuring flask and dissolved in the sample solvent to form 200 mL of a solution. 5 mL of the solution was precisely measured and transferred to a 50 mL measuring flask. 10 mL of the internal standard solution was precisely added to the measuring flask, and the sample solvent was further added thereto to form 50 mL of a standard solution.
After sampling, the test liquid was filtered, and about 0.04 g of the filtered test liquid was precisely weighed and transferred to a 50 mL measuring flask. About 2.5 mL of dimethyl sulfoxide was added thereto. After 10 mL of the internal standard solution was added thereto, the sample solvent was further added thereto to form 50 mL of a sample solution.
The concentration was measured under the test conditions below.
The concentration is calculated from the following formula.
The concentration (mg/g) of the test liquid=1000×(QT×WS×FP×502.58)/(QS×WT×40×593.52),
wherein WS: the weight (g) of the standard sample when the standard solution is prepared; WT: the weight (g) of the test liquid when the sample solution is prepared; FP: the purity factor of the standard sample; QS: the value obtained by dividing the peak area of the standard sample in the chromatogram of the standard solution by the peak area of the internal standard; and QT: the value obtained by dividing the peak area of the sample in the chromatogram of the sample solution by the peak area of the internal standard.
The test system of data set [4] is cancer cells including human stomach cancer cells, human breast cancer cells, small cell lung cancer, pancreas cancer cells, prostate cancer cells, kidney …. Conditions: Test Example 1 in WO 2007/091622; cited from earlier work.
The test system of a further data set is human leukemia cells. Particulars: Test Example 2 in WO 2007/091622; cited from earlier work.
The subject of data set [5] is human colon cancer cell lines. Particulars: Test Example 3 in WO 2007/091622; cited from earlier work.
Data set [6] relates to cancer cells. Conditions: in combination with an epidermal growth factor receptor (EGFR) inhibitor; Test Example 4 in WO 2007/091622; cited from earlier work.
Data set [7] concerns human non-small-cell lung cancer. Conditions: Test Example 5 in WO 2007/091622, cited from earlier work.
Data set [8] deals with cancer cells. Particulars: in combination with a VEGFR inhibitor or a Raf kinase inhibitor; Test Example 6 in WO 2007/091622; cited from earlier work.
Another data set deals with human kidney cancer. Conditions: Test Example 7 in WO 2007/091622, cited from earlier work.

Entries after “also recorded” stand apart in the source; their conditions may differ. Like-named read-outs stand apart in the source and are kept apart here.

In the case of `Cc1cc(Oc2ccc3nc(COc4ccc(CC5SC(=O)NC5=O)cc4)n(C)c3c2)cc(C)c1N` (centres unmarked) [Compound (I), 5-(4-{[6-(4-amino-3,5-dimethylphenoxy)-1-methyl-1-H-benzimidazol-2-yl]methoxy}benzyl)-1,3-thiazolidine-2,4-dione], the “ability to activate PPAR γ” value in data set [1] is on record as “significant ability to activate”. The “activity to ameliorate insulin resistance and to reduce blood sugar” value in data set [2] was “significant activity to ameliorate insulin resistance and to reduce blood sugar”.

In the case of `Cc1cc(Oc2ccc3nc(COc4ccc(CC5SC(=O)NC5=O)cc4)n(C)c3c2)cc(C)c1N.Cl.Cl.O` (centres unmarked) [5-(4-{[6-(4-amino-3,5-dimethylphenoxy)-1-methyl-1-H-benzimidazol-2-yl]methoxy}benzyl)-1,3-thiazolidine-2,4-dione dihydrochloride monohydrate], the “The concentration of 5-(4-{[6-(4-amino-3,5-dimethylphenoxy)-1-methyl-1-H-benzimidazol-2-yl]methoxy}benzyl)-1,3-thiazolidine-2,4-dione in dilute hydrochloric acid” value in [3] (dihydrochloride monohydrate) amounted to 0.276 mg/g.

With `Cc1cc(Oc2ccc3nc(COc4ccc(CC5SC(=O)NC5=O)cc4)n(C)c3c2)cc(C)c1N.Cl.Cl` (centres unmarked) [dihydrochloride of Compound (I), 5-(4-{[6-(4-amino-3,5-dimethylphenoxy)-1-methyl-1-H-benzimidazol-2-yl]methoxy}benzyl)-1,3-thiazolidine-2,4-dione dihydrochloride], the “activity to inhibit the growth of cancer cells” value in data set [4] was “significant activity to inhibit the growth”. The “growth inhibition of human leukemia cells” value in the data set on human leukemia cells is given as “significantly inhibits the growth-inhibiting activity”. In [5], the “antitumor activity in vivo against human colon cancer cell lines” value is “significant antitumor activity”. For the same molecule, the “activity to inhibit the growth of cancer cells in combination” value with cancer cells [6] and with cancer cells [8] was “synergistic activity to inhibit the growth” each time. Also, the “antitumor activity against human non-small-cell lung cancer” value in data set [7] (alone) was “has antitumor activity”. In addition, the “antitumor activity against human non-small-cell lung cancer in combination” value in data set [7] (in combination with an EGFR inhibitor) is reported as “enhanced antitumor activity”. Besides, in the data set on human kidney cancer (alone), the “antitumor activity against human kidney cancer” value is given as “has antitumor activity”. In the data set on human kidney cancer (in combination with a VEGFR inhibitor or a Raf kinase inhibitor), the “antitumor activity against human kidney cancer in combination” value was “enhanced antitumor activity”.

For the molecule `Cc1cc(Oc2ccc3nc(COc4ccc(CC5SC(=O)NC5=O)cc4)n(C)c3c2)cc(C)c1N.Cl.Cl.O` (centres unmarked) [Crystalline form A, 5-(4-{[6-(4-amino-3,5-dimethylphenoxy)-1-methyl-1-H-benzimidazol-2-yl]methoxy}benzyl)-1,3-thiazolidine-2,4-dione dihydrochloride monohydrate], the “The concentration of 5-(4-{[6-(4-amino-3,5-dimethylphenoxy)-1-methyl-1-H-benzimidazol-2-yl]methoxy}benzyl)-1,3-thiazolidine-2,4-dione in dilute hydrochloric acid” value in data set [3] (listed as Crystalline form A manufactured according to Example 4, dihydrochloride monohydrate) amounted to 0.325 mg/g. In [3] (dilute hydrochloric acid, dihydrochloride monohydrate), the “Solubility / concentration in dilute hydrochloric acid, comparison in words” value is reported as “highest concentration among the dihydrochloride monohydrate crystalline forms; also recorded: higher solubility than Crystalline form B”.
